Molecular target: T1, PolyNic (polygenomic nicotinamidase)
T1 construct: 588 bp PCR product in pET-46 Ek/LIC, expressed in E. coli Rosetta 2 (DE3); dimer
Assay: HPLC nicotinamidase assay, Morrison fit, NAM as substrate (Ki […] with PZA as substrate)
Format: biochemical

Structure (SMILES): O=Cc1cccnc1 [nicotinaldehyde]
- Ki: 180 nM
